Results published in patent publication US20050090471A1, “Inhibitors of cyclin-dependent kinases, compositions and uses related thereto” (GPC Biotech, Inc, priority 2001, published 2005).
pIC50: −log10 of the molar value.

The compounds below were run on HCT-116 (assay: Calcein AM viability assay, HCT-116). Conditions: 72-hours incubation, plus 1 mg/ml alpha acidic glycoprotein and 45 mg/ml human serum albumin, read-out: HCT-116 IC50 protein adjusted.
Assay type: cell-based, human
Method: The potency of Cdk inhibitors, as measured by loss of cellular viability, was determined with the Calcein AM assay (Molecular Probes). Calcein AM is a substrate of intracellular esterases, which is cleaved only in viable cells to generate a fluorescent product that can be quantified with a fluorescent plate reader. The fluorescent signal is proportional to the number of viable cells, and thus loss of signal in response to the exposure of cells to Cdk inhibitors correlates with a loss of viability. This assay distinguishes cell cycle arrest from loss of viability and is thus well suited for the evaluation of Cdk inhibitors.
Cellular IC50's were determined in the human colorectal carcinoma cell line, HCT-116, and the normal human fibroblast, IMR90. Protein adjusted IC50's were also determined in HCT-116. Results are presented in Table 3 below (HCT-116 (viability/protein adjusted) and IMR-90).
HCT-116 or IMR90 cells were recovered from sub-confluent plates by trypsinization and 1,000 or 4,000 cells, respectively, were plated in 24-well dishes and incubated overnight at 37° C., 5% CO2. HCT-116 cells were cultured in RPMI-1640, 10% FCS, and IMR90 cells were cultured in Minimum Essential Medium-alpha, 10% FCS. After overnight incubation to allow.adlierence, the media was aspirated from each well and replaced with media containing a test compound at a concentration from 0 to 250 nM, spanning a total of 7 doses. The plates were returned to the incubator and cultured for an additional 3 days. […] After 72-hours incubation with the test compound, the cells were washed twice with 1×PBS, talking special care to remove all residual buffer.
A 5 μM Calcein AM. solution was prepared by dissolving a 50 μg aliquot of Calcein (Molecular Probes catalog # C3100) in 50 μl DMSO. After the Calcein had completely dissolved (10 minutes at room temperature), it was diluted into 10 ml PBS. Calcein/PBS (0.5 ml) was added to each well. The plates were incubated for 75 minutes at 37° C. (protected from light) and the fluorescent signal was read on a fluorescent plate reader (excitation 485/20 and emission 530/25).

| Compound | pIC50 |
| --- | --- |
| Cl.Cl.Cl.O=C(Nc1cccc2c1C(=O)c1c-2n[nH]c1-c1ccc(OCCN2CCCC2)cc1)NN1CCOCC1 [Compound I] | > 6.00 |
| CC(C)N1CCN(CCOc2ccc(-c3[nH]nc4c3C(=O)c3c(NC(=O)NN5CCOCC5)cccc3-4)cc2)CC1.Cl.Cl.Cl [E] | > 6.00 |
| CCCN(CCOc1ccc(-c2[nH]nc3c2C(=O)c2c(NC(=O)NN4CCOCC4)cccc2-3)cc1)CC1CC1.Cl.Cl.Cl [G] | > 6.00 |
| CC(C)N1CCN(Cc2cc(-c3[nH]nc4c3C(=O)c3c(NC(=O)NN5CCOCC5)cccc3-4)ccc2O)CC1.Cl.Cl.Cl.Cl [K] | > 6.00 |
| CN1CCN(NC(=O)Nc2cccc3c2C(=O)c2c-3n[nH]c2-c2ccc(OCCN3CCOCC3)cc2)CC1.Cl.Cl [Q] | > 6.00 |

Each compound was assayed on HCT-116 cells (assay: Clonogenic survival assay with HCT-116 cells). Conditions: Homo sapiens, 24 h exposure, read-out: HCT-116 IC50 clonogenic 24 h.
Assay type: cell-based
Method: This assay was used to determine the concentration of a compound that results irreversible loss of viability after a specified period of exposure.
Media (RPMI-1640, 10% FCS, pen/strep) was pre-warnied to 37° C. in a water bath. Cells were incubated and grown at 37° C., 5% CO2. Cells were recovered by trypsinization from sub-confluent plates and counted using a hemocytometer. 1×10^4 cells were plated in 25 mls of media in a 15 cm tissue culture dish. 14 plates were set up for each test compound, and were incubated overnight at 37° C. The compound was diluted into media at 7 concentrations and the media on the cells was replaced with that containing the test compound. Two plates were set up for each concentration of the compound to be tested, as well as two control plates without compound. […] Colonies were stained with crystal violet solution (0.4% crystal violet, 20 % ethanol) for 5 minutes, washed twice with distilled water, and counted.

| Compound | pIC50 |
| --- | --- |
| CC(C)N1CCN(Cc2cc(-c3[nH]nc4c3C(=O)c3c(NC(=O)NN5CCOCC5)cccc3-4)ccc2O)CC1.Cl.Cl.Cl.Cl [K] | > 6.00 |
